Legend:
[1] = system: human squamous cell carcinoma of the head and neck (SCCHN) cell line FaDu; test: FaDu growth inhibition assay; assay type: cell-based; conditions: 3 days incubation, CellTiter-Glo
Protocol: (§1) In this assay, the growth inhibitory activity of test compounds in a human squamous cell carcinoma of the head and neck (SCCHN) cell line FaDu was measured. FaDu cells were maintained in an RPMI-1640 (Wako Pure Chemical Industries, Ltd., 187-02021) medium containing 10% fetal bovine serum (FBS: Nichirei, 12D168), and penicillin and streptomycin in a 5% CO2 incubator (37° C.). To each well of a 96 well plate (Becton, Dickinson and Company, 353219), 75 μL of FaDu cell suspension adjusted to a concentration of 4×10^4 cells/mL with the culture medium was added, and the cells were incubated overnight in a 5% CO2 incubator (37° C.). On the next day, 25 μL of Compound (1) or Halichondrin B in three-fold dilution series suspended in the culture medium was added to each well, and the resultant was incubated for 3 days in a 5% CO2 incubator (37° C.). Then, cell viability was determined by CellTiter-Glo® Luminescent Cell Viability Assay (Promega) with EnVision 2103 Multilabel Reader (Perkin-Elmer, Wellesley, MA). Value of the wells containing cells without adding the test compounds was defined as 100% and the value of the wells containing no cells was defined as 0%. The concentration of the test compound necessary for inhibiting the cell growth by 50% (i.e., an IC50 value) was calculated, and shown in Table 1.

[2] = system: human breast cancer cell line MDA-MB231; test: MDA-MB231 growth inhibition assay; assay type: cell-based; conditions: 3 days incubation, CellTiter-Glo
Protocol: as §1, with “breast cancer” for “squamous cell carcinoma of the head and neck (SCCHN)”, “MDA-MB231” for “FaDu”, “Dulbecco's Modified Eagle's medium” for “an RPMI-1640”, “044-29765)” for “187-02021)”, “2.” for “1.”

[3] = system: human breast cancer cell line HCC1954; test: HCC1954 growth inhibition assay (Test Example 3); assay type: cell-based; conditions: 3 days incubation, CellTiter-Glo
Protocol: In this assay, the growth inhibitory activity of test compounds in a human breast cancer cell line HCCl954 was measured. HCC1954 cells were maintained in an RPMI-1640 medium modified to contain 2 mM L-glutamine, 10 mM HEPES, 1 mM sodium pyruvate, 4500 mg/L glucose, and 1500 mg/L sodium bicarbonate (ATCC 30-2001) containing 10% fetal bovine serum (FBS: Nichirei, 12D168), and penicillin and streptomycin in a 5% CO2 incubator (37° C.). To each well of a 96 well plate (Becton, Dickinson and Company, 353219), 75 μL of HCC1954 cell suspension adjusted to a concentration of 4×10^4 cells/mL with the culture medium was added, and the cells were incubated overnight in a 5% CO2 incubator (37° C.). On the next day, 25 μL of Compound (1) or Halichondrin B in three-fold dilution series suspended in the culture medium was added to each well, and the resultant was incubated for 3 days in a 5% CO2 incubator (37° C.). Then, cell viability was determined by CellTiter-Glo® Luminescent Cell Viability Assay (Promega) with EnVision 2103 Multilabel Reader (Perkin-Elmer, Wellesley, MA). Value of the wells containing cells without adding the test compounds was defined as 100% and the value of the wells containing no cells was defined as 0%. The concentration of the test compound necessary for inhibiting the cell growth by 50% (i.e., an IC50 value) was calculated, and shown in Table 3.

[4] = system: FaDu subcutaneous xenograft; test: FaDu subcutaneous xenograft model in combination with cetuximab; assay type: in vivo, nude mice
Text: A human squamous cell carcinoma of the head and neck (SCCHN) cell line FaDu, which had been cultured in an RPMI-1640 medium containing 10% FBS, and penicillin and streptomycin, was adjusted to a concentration of 5×10^7 cells/mL with Hanks' Balanced Salt Solution to prepare a cell suspension. The cell suspension was inoculated in a volume of […] into a subcutaneous part of a right flank of nude mice, 7 weeks of ages (CAnN.Cg-Foxnlnu/CrlCrlj, female, Charles River Laboratories Japan Inc.). Ten days after cell inoculation, the shortest diameter and the longest diameter of a tumor in each mouse were measured by using an electronic digital caliper (Digimatic™ caliper, Mitutoyo Corporation), so as to calculate the volume of the tumor in accordance with the following calculation formulae: […]
On the basis of the volumes of tumors obtained on the first day of administration, the mice were grouped such that averages of the tumor volumes were substantially equal among the groups. Each test compound was dissolved in DMSO and a solution was stored at the freezer before use. Immediately before the administration, the stock solution was diluted in saline with 100 μM of hydroxypropyl-β-cyclodextrin. […] Incidentally, the experiment was conducted on groups each consisting of 4 mice.

[5] = ¼ MTD i.v. (Halichondrin B 0.0125 mg/kg, Compound (1) 0.05 mg/kg) + cetuximab 20 mg/kg
[6] = ½ MTD i.v. (Halichondrin B 0.025 mg/kg, Compound (1) 0.1 mg/kg) + cetuximab 20 mg/kg

| SMILES | IC50 ([1]; Homo sapiens, FaDu, 72 h) [nM] | IC50 ([2]; Homo sapiens, MDA-MB-231, 72 h) [nM] | IC50 ([3]; Homo sapiens, HCC1954, 72 h) [nM] | Tumor Regression on day 35 (%) [4, 5] [%] | Tumor Regression on day 35 (%) [4, 6] [%] | IC50 [1] [nM] | IC50 [2] [nM] | IC50 [3] [nM] |
| --- | --- | --- | --- | --- | --- | --- | --- | --- |
| C=C1C[C@@H]2CC[C@@]34C[C@H]5O[C@H]6[C@@H](O3)[C@H]3O[C@H](CC[C@@H]3O[C@H]6C5O4)CC(=O)O[C@@H]3[C@@H](C)[C@@H]4O[C@@H]5C[C@]6(C[C@@H]7O[C@]8(C[C@H](C)[C@@H]9O[C@H](CN)[C@H](O)C[C@@H]9O8)C[C@H](C)[C@@H]7O6)O[C@@H]5C[C@@H]4O[C@H]3C[C@H]3O[C@@H](CC[C@@H]1O2)C[C@@H](C)C3=C (stereo in doubt) [Compound (1)] | 0.0714 | 0.109 | 0.0668 | 38 | 60 |  |  |  |
| C=C1C[C@@H]2CC[C@@]34C[C@H]5O[C@H]6[C@@H](O3)[C@H]3O[C@H](CC[C@@H]3O[C@H]6[C@H]5O4)CC(=O)O[C@@H]3[C@@H](C)[C@@H]4O[C@@H]5C[C@]6(C[C@@H]7O[C@]8(C[C@H](C)[C@@H]9O[C@H]([C@@H](O)C[C@@H](O)CO)C[C@@H]9O8)C[C@H](C)[C@@H]7O6)O[C@@H]5C[C@@H]4O[C@H]3C[C@H]3O[C@@H](CC[C@@H]1O2)C[C@@H](C)C3=C [Halichondrin B, reference compound] |  |  |  | −38 | −2 | 0.124 | 1 | 0.154 |
